The conditions of series [1]: human gut metagenome, 24 h, 2 µM.
Series [2] is described as follows: The drug is tested on WLS-077 corresponding to human gut metagenome with ENA study accession number: PRJEB37062 and ENA sample accession number: ERS12561750 for biotransformation under anaerobic condition. The drug concentrations were measured over 9 timepoints collected between 0 and 24 hours of incubation by liquid-chromatography-coupled mass spectrometry (LC–MS). The settings on record: 2 µM.

For series [3] the following is noted: human gut metagenome, 24 h, 2 µM. The source holds these as a separate data set.
For series [4] the following is noted: human gut metagenome, 24 h, 2 µM. This is another data set of the same source.
Series [5] in a line: The drug is tested on WLS-310 corresponding to human gut metagenome with ENA study accession number: PRJEB37062 and ENA sample accession number: ERS12561785 for biotransformation under anaerobic condition. The drug concentrations were measured over 9 timepoints collected between 0 and 24 hours of incubation by liquid-chromatography-coupled mass spectrometry (LC–MS). Conditions: 2 µM.

The nature of series [6]: The drug is tested on Z-018 corresponding to pig gut metagenome with ENA study accession number: PRJEB37062 and ENA sample accession number: ERS12561817 for biotransformation under anaerobic condition. The drug concentrations were measured over 9 timepoints collected between 0 and 24 hours of incubation by liquid-chromatography-coupled mass spectrometry (LC–MS). Conditions: 2 µM.

Series [7] is described as follows: The drug is tested on Z-013 corresponding to rabbit gut metagenome with ENA study accession number: PRJEB37062 and ENA sample accession number: ERS12561813 for biotransformation under anaerobic condition. The drug concentrations were measured over 9 timepoints collected between 0 and 24 hours of incubation by liquid-chromatography-coupled mass spectrometry (LC–MS). The settings on record: 2 µM.

A short description of series [8]: The drug is tested on Z-022 corresponding to mouse gut metagenome with ENA study accession number: PRJEB37062 and ENA sample accession number: ERS12561821 for biotransformation under anaerobic condition. The drug concentrations were measured over 9 timepoints collected between 0 and 24 hours of incubation by liquid-chromatography-coupled mass spectrometry (LC–MS). Conditions: 2 µM.

Series [9] in a line: The drug is tested on Z-029 corresponding to rat gut metagenome with ENA study accession number: PRJEB37062 and ENA sample accession number: ERS12561828 for biotransformation under anaerobic condition. The drug concentrations were measured over 9 timepoints collected between 0 and 24 hours of incubation by liquid-chromatography-coupled mass spectrometry (LC–MS). Conditions: 2 µM.

The conditions of series [10]: human gut metagenome, 24 h, 2 µM. This is another data set of the same source.
For series [11] the following is noted: human gut metagenome, 24 h, 2 µM. This is another data set of the same source.
Series [12] can be described thus: The drug is tested on Z-025 corresponding to rabbit gut metagenome with ENA study accession number: PRJEB37062 and ENA sample accession number: ERS12561824 for biotransformation under anaerobic condition. The drug concentrations were measured over 9 timepoints collected between 0 and 24 hours of incubation by liquid-chromatography-coupled mass spectrometry (LC–MS). The settings on record: 2 µM.

Series [13] in a line: The drug is tested on Z-011 corresponding to mouse gut metagenome with ENA study accession number: PRJEB37062 and ENA sample accession number: ERS12561811 for biotransformation under anaerobic condition. The drug concentrations were measured over 9 timepoints collected between 0 and 24 hours of incubation by liquid-chromatography-coupled mass spectrometry (LC–MS). The settings on record: 2 µM.

For series [14] the following is noted: human gut metagenome, 24 h, 2 µM. This is another data set of the same source.
The conditions of series [15]: human gut metagenome, 24 h, 2 µM. The source holds these as a separate data set.
The conditions of series [16]: human gut metagenome, 24 h, 2 µM. The source holds these as a separate data set.
Series [17] can be described thus: The drug is tested on Z-012 corresponding to metagenome with ENA study accession number: PRJEB37062 and ENA sample accession number: ERS12561812 for biotransformation under anaerobic condition. The drug concentrations were measured over 9 timepoints collected between 0 and 24 hours of incubation by liquid-chromatography-coupled mass spectrometry (LC–MS). Conditions: 2 µM.

The nature of series [18]: The drug is tested on Z-001 corresponding to mouse gut metagenome with ENA study accession number: PRJEB37062 and ENA sample accession number: ERS12561801 for biotransformation under anaerobic condition. The drug concentrations were measured over 9 timepoints collected between 0 and 24 hours of incubation by liquid-chromatography-coupled mass spectrometry (LC–MS). Conditions: 2 µM.

The conditions of series [19]: human gut metagenome, 24 h, 2 µM. The source holds these as a separate data set.
For series [20] the following is noted: human gut metagenome, 24 h, 2 µM. The source holds these as a separate data set.
Note: call rule not given here.

On to `CN1CCC[C@@H]1CCO[C@](C)(c1ccccc1)c1ccc(Cl)cc1.O=C(O)/C=C/C(=O)O` [CLEMASTINE FUMARATE], for which the “Bacterial Biotransformation” value in series [1] is reported as “Compound NOT metabolized”; in [2], “Compound NOT metabolized”; in [3], “Compound NOT metabolized”; in series [4] it was “Compound NOT metabolized”; in series [5], “Compound metabolized”; in series [6], “Compound NOT metabolized”. In addition, the “Bacterial Biotransformation” value in [7] is given as “Compound NOT metabolized”; in series [8], “Compound NOT metabolized”; in series [9], “Compound NOT metabolized”; in [10], “Compound metabolized”; in series [11], “Compound metabolized”; in series [12], “Compound NOT metabolized”. Besides, the “Bacterial Biotransformation” value in series [13] is “Compound NOT metabolized”; in series [14], “Compound metabolized”; in series [15], “Compound metabolized”; in series [16] it was “Compound NOT metabolized”; in [17], “Compound NOT metabolized”; in series [18] it was “Compound NOT metabolized”. Besides, the “Bacterial Biotransformation” value in [19] is “Compound metabolized”; in series [20] it was “Compound NOT metabolized”.
For `CC(C)(C)NCC(O)c1cc(Cl)c(N)c(Cl)c1` (stereo not given) [CLENBUTEROL], the “Bacterial Biotransformation” value in [1], in [2], in series [3], in series [4], in series [5] and in [6] was “Compound NOT metabolized” in each case. Moreover, the “Bacterial Biotransformation” value in series [7], in [8], in series [9], in [10], in series [11] and in [12] was “Compound NOT metabolized” in each case. In addition, the “Bacterial Biotransformation” value in series [13], in series [14], in series [15], in series [16], in [17] and in [18] was “Compound NOT metabolized” in each case. The “Bacterial Biotransformation” value in series [19] and in series [20] was “Compound NOT metabolized” throughout.
Consider `COc1ccc(Cc2nccc3cc(OC)c(OC)cc23)cc1OC` [PAPAVERINE], for which the “Bacterial Biotransformation” value in series [1] is “Compound metabolized”; in series [2], “Compound NOT metabolized”; in [3] it was “Compound NOT metabolized”; in [4], “Compound metabolized”; in [5], “Compound metabolized”; in [6] it was “Compound metabolized”. In addition, the “Bacterial Biotransformation” value in [7] is on record as “Compound NOT metabolized”; in [8], “Compound metabolized”; in series [9], “Compound NOT metabolized”; in series [10] it was “Compound metabolized”; in [11], “Compound metabolized”; in series [12], “Compound metabolized”. For the same compound, the “Bacterial Biotransformation” value is reported as “Compound NOT metabolized” in [13]; “Compound metabolized” in series [14]; “Compound NOT metabolized” in series [15]; “Compound metabolized” in series [16]; “Compound NOT metabolized” in series [17]; “Compound metabolized” in [18]. Moreover, the “Bacterial Biotransformation” value in series [19] is reported as “Compound NOT metabolized”; in series [20], “Compound metabolized”.
Take `CN(C)CCOC(C)(c1ccccc1)c1ccccn1.O=C(O)CCC(=O)O` (stereo not given) [DOXYLAMINE SUCCINATE]: the “Bacterial Biotransformation” value in series [1], in [2], in [3], in [4], in series [5] and in series [6] was “Compound NOT metabolized” in each case. In addition, the “Bacterial Biotransformation” value in series [7], in series [8], in series [9], in series [10], in [11] and in series [12] was “Compound NOT metabolized” each time. Further, the “Bacterial Biotransformation” value in [13], in series [14], in series [15], in series [16], in series [17] and in series [18] was “Compound NOT metabolized” each time. Further, the “Bacterial Biotransformation” value in [19] and in series [20] was “Compound NOT metabolized” in each case.
`CCOc1cc(CC(=O)N[C@@H](CC(C)C)c2ccccc2N2CCCCC2)ccc1C(=O)O` [REPAGLINIDE]: the “Bacterial Biotransformation” value in series [1] is “Compound metabolized”; in [2], “Compound metabolized”; in series [3] it was “Compound NOT metabolized”; in series [4], “Compound metabolized”; in series [5] it was “Compound metabolized”; in series [6], “Compound NOT metabolized”. Besides, the “Bacterial Biotransformation” value in series [7] is listed as “Compound NOT metabolized”; in series [8], “Compound metabolized”; in series [9], “Compound NOT metabolized”; in [10], “Compound metabolized”; in series [11] it was “Compound metabolized”; in series [12], “Compound NOT metabolized”. Also, the “Bacterial Biotransformation” value in [13] is given as “Compound NOT metabolized”; in series [14], “Compound metabolized”; in series [15] it was “Compound NOT metabolized”; in [16], “Compound metabolized”; in series [17], “Compound metabolized”; in series [18] it was “Compound metabolized”. For the same compound, the “Bacterial Biotransformation” value in series [19] and in series [20] was “Compound metabolized” each time.
Consider `CC[C@@]1(O)C(=O)OCc2c1cc1n(c2=O)Cc2cc3c(CN(C)C)c(O)ccc3nc2-1` [TOPOTECAN], for which the “Bacterial Biotransformation” value in series [1], in series [2], in [3], in [4], in series [5] and in series [6] was “Compound NOT metabolized” throughout. Further, the “Bacterial Biotransformation” value in series [7], in [8], in [9], in series [10], in series [11] and in [12] was “Compound NOT metabolized” each time. Besides, the “Bacterial Biotransformation” value in [13], in series [14], in series [15], in series [16], in [17] and in series [18] was “Compound NOT metabolized” each time. Also, the “Bacterial Biotransformation” value in [19] and in [20] was “Compound NOT metabolized” each time.

Values taken from ChEMBL document CHEMBL5724914, “Linking interpersonal differences in gut microbiota composition and drug biotransformation activity” (2024).
